On the set-up of data set [1]: method as in Sinnes et al. [2019]. The settings on record: ref Sinnes et al. [2019], in % (unit assumed), cited from earlier work.
On the set-up of data set [2]: method as in Sinnes et al. [2019]. Conditions: PBS, ref Sinnes et al. [2019], in % (unit assumed), cited from earlier work.
Data set [3] deals with PSMA-positive LNCaP cells. In words: Internalization studies in LNCaP cells. Type of data set: cell-based, human. Conditions: for specific internalization or cell surface binding: PSMA-positive LNCaP cells. The protocol: (§1) The in vitro experiments were performed using the PSMA-positive LNCaP cell line (androgen-sensitive human lymph node metastatic lesion of prostatic adenocarcinoma, CRL-1740 [American Type Culture Collection]) (Benešová et al. [2015]). For negative control, PSMA-PC3 cells (bone metastasis of a grade IV prostatic adenocarcinoma, ATCC CRL-1435) were used (Eder et al. [2012a]). The cells were cultured in RPMI1640 medium supplemented with 10% fetal calf serum and L-glutamine and incubated at 37 °C in an environment of humidified air containing 5% CO2. The cells were harvested using trypsin-ethylenediaminetetraacetic acid (trypsin-EDTA; 0.05% trypsin, 0.02% EDTA, all from PAN Biotech).
For internalization studies 10^5 LNCaP or PC3 cells were seeded in poly(L-lysine)-coated 24-well cell culture plates at 37 °C in an environment of humidified air containing 5% CO2 for 24 h. (Mier et al. [2007]). The medium is removed and 250 μl of radiolabeled 30 nM AAZTA^5-PSMA is replaced for 45 min. One plate is being incubated at 37 °C and the second one at 4 °C to inhibit the internalization. The specificity of the ligands is proofed by addition 500 μM of 2-(phosphonomethyl)-pentanedioic acid (2-PMPA, Axxora, Loerrach, Germany). After incubation, the cells were washed three times with 1 ml ice cold PBS. To determine the surface-bound activity cells were incubated twice with 0.5 ml of glycine-HCl in PBS (50 mM, pH 2.8) each for 5 min at room temperature. Both washing steps were collected for measuring with a gamma counter (Packard Cobra II, GMI, Minnesota, USA). Before lysating the cells with 0.5 mL of 0.3 M NaOH to determine the internalized fraction, they were once washed with 1 ml ice cold PBS (Eder et al. [2012a]).

Data set [4] deals with PC3 cells. In words: Internalization studies in PC3 cells (negative control). Type of data set: cell-based, human. Conditions: PSMA-negative PC3 cells. The method, then: as §1
For internalization studies 10^5 LNCaP or PC3 cells were seeded in poly(L-lysine)-coated 24-well cell culture plates at 37 °C in an environment of humidified air containing 5% CO2 for 24 h. (Mier et al. [2007]). The medium is removed and 250 μl of radiolabeled 30 nM AAZTA^5-PSMA is replaced for 45 min. One plate is being incubated at 37 °C and the second one at 4 °C to inhibit the internalization. The specificity of the ligands is proofed by addition 500 μM of 2-(phosphonomethyl)-pentanedioic acid (2-PMPA, Axxora, Loerrach, Germany). After incubation, the cells were washed three times with 1 ml ice cold PBS. […]

Details of data set [5]: method as in Sinnes et al. [2019]. Conditions: HS, ref Sinnes et al. [2019], in % (unit assumed), cited from earlier work.
Data set [6] addresses T1, PSMA (Homo sapiens, UniProt Q04609).
T1 construct: 10^5 LNCaP cells per well were incubated with 0.75 nM [^68Ga]Ga-PSMA-10; host or cells: LNCaP
Conditions: LNCaP cells, read-out: Ki ± SD, cited from earlier work.

The subject of data set [7] is PSMA-positive LNCaP cells. The settings on record: cited from earlier work.
[8] abbreviates: LNCaP cells, ref Benešová et al. [2015].

Where two headings read alike, the source gives them in different places.

T1 sequence (Q04609 whole entry): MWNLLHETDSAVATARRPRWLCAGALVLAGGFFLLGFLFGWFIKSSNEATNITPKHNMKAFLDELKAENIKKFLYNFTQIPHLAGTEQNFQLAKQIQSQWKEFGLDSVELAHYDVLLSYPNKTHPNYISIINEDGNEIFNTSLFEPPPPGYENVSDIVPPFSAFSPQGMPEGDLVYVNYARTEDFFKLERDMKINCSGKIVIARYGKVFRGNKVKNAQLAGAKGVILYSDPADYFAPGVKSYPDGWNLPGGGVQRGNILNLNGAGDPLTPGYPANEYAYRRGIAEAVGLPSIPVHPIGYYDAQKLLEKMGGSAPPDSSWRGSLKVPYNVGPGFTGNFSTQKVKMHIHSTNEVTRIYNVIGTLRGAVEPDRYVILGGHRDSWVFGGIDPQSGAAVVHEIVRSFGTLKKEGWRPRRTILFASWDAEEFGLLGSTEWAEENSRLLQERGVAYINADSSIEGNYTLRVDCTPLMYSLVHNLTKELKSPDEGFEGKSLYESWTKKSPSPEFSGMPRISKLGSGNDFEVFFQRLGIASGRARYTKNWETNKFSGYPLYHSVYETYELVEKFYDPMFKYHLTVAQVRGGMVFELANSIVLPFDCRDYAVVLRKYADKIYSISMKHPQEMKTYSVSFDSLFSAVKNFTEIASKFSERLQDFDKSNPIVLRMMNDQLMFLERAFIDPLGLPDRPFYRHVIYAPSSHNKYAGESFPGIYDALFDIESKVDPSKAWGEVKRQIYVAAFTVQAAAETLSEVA

On to `O=C(O)CCCCC1(N(CC(=O)O)CC(=O)O)CN(CC(=O)O)CCN(CC(=O)O)C1.[44Sc+3]` [^44Sc AAZTA^5], for which the Stability values in data set [1] (DTPA, 1 h) was 94.3 ± 0.9; in data set [1] (DTPA, 4 h), 92.5 ± 0.5; in data set [1] (DTPA, 8 h) it was 93.8 ± 1.2; in data set [1] (DTPA, 24 h) it was 93.4 ± 1.1; in data set [1] (EDTA, 1 h) it was 93.7 ± 1.3; in data set [1] (EDTA, 4 h), 90.0 ± 3.2. Also, the Stability values in data set [1] (EDTA, 8 h) is 92.3 ± 2.1; in data set [1] (EDTA, 24 h), 91.9 ± 1.8; in data set [2] (1 h) it was 95.3 ± 0.9; in data set [2] (4 h), 92.7 ± 1.3; in data set [2] (8 h), 95.9 ± 1.2; in data set [2] (24 h), 96.0 ± 0.8. The Stability values in data set [5] (1 h) was 93.7 ± 0.9; in data set [5] (4 h) it was 94.3 ± 1.7; in data set [5] (8 h), 93.2 ± 1.1; in data set [5] (24 h), 91.3 ± 1.8. Moreover, the “specific internalization or cell surface binding” value in data set [3] and in data set [4] was “no surface activity or internalization” in each case.

`O=C(O)CCCCC1(N(CC(=O)O)CC(=O)O)CN(CC(=O)O)CCN(CC(=O)O)C1.[68Ga+3]` [[^68Ga]Ga-AAZTA^5]: the Stability values in data set [1] (DTPA, 0.5 h) is on record as 84.3 ± 0.9; in data set [1] (DTPA, 1 h) it was 78.0 ± 1.4; in data set [1] (DTPA, 2 h), 45.7 ± 1.3; in data set [1] (EDTA, 0.5 h), 93.0 ± 0.2; in data set [1] (EDTA, 1 h), 50.3 ± 7.4; in data set [1] (EDTA, 2 h), 49.5 ± 2.5. In addition, the Stability values is on record as 97.5 ± 1.0 in data set [2] (0.5 h); 88.7 ± 0.5 in data set [2] (1 h); 78.5 ± 4.5 in data set [2] (2 h); 93.0 ± 0.8 in data set [5] (0.5 h); 92.7 ± 1.3 in data set [5] (1 h); 85.3 ± 3.4 in data set [5] (2 h).

Usually Ki stands for a dissociation constant, usually derived from enzyme kinetics or from competition with a known ligand. On to `O=C(O)CCC(NC(=O)NC(CCCCNC(=O)C(Cc1ccc2ccccc2c1)NC(=O)C1CCC(CNC(=O)CN2CCN(CC(=O)O)CCN(CC(=O)O)CCN(CC(=O)O)CC2)CC1)C(=O)O)C(=O)O.[Sc+3]` (stereo not drawn) [[^nat/44Sc]Sc-PSMA-617], for which the Ki in data set [6] (ref Eppard et al. [2017]) is 4.7 ± 0.8 nM. Also, the “Internalization ± SD” value in data set [7] (LNCaP cells, ref Eppard et al. [2017]) was 15.8 ± 2.1 %IA/10^6 cells.

For the compound `O=C([O-])CN(CCN(CC(=O)[O-])Cc1cc(CCC(=O)NCCCCCC(=O)NCCCC[C@H](NC(=O)N[C@@H](CCC(=O)O)C(=O)O)C(=O)O)ccc1[O-])Cc1cc(CCC(=O)O)ccc1[O-].[68Ga+3].[OH3+]` [[^nat/68Ga]Ga-PSMA-11], the Ki in data set [6] (ref Eder et al. [2012a]) was 12 ± 2.8 nM. In addition, in data set [7] (setting [8]), the “Internalization ± SD” value is 9.5 ± 2.6 %IA/10^6 cells.

On to `O=C(O)CCC(NC(=O)NC(CCCCNC(=O)C(Cc1ccc2ccccc2c1)NC(=O)C1CCC(CNC(=O)CN2CCN(CC(=O)O)CCN(CC(=O)O)CCN(CC(=O)O)CC2)CC1)C(=O)O)C(=O)O.[Lu+3]` (stereo not drawn) [[^nat/177Lu]Lu-PSMA-617], for which the Ki in data set [6] (ref Benešová et al. [2015]) was 6.9 ± 1.3 nM. Moreover, the “%internalization / total cellular activity ratio” value in data set [3] (LNCaP cells, 37 °C, surface versus internalized activity, this assay) is given as 27%; in data set [7] (ref Umbricht et al. [2017]), 10–15%. In addition, the “Internalization ± SD” value in data set [7] (setting [8]) is given as 17.5 ± 3.1 %IA/10^6 cells.

`O=C(O)CCC(NC(=O)NC(CCCCNC(=O)C(Cc1ccc2ccccc2c1)NC(=O)C1CCC(CNC(=O)CN2CCN(CC(=O)O)CCN(CC(=O)O)CCN(CC(=O)O)CC2)CC1)C(=O)O)C(=O)O.[Ga+3]` (stereo not drawn) [[^nat/68Ga]Ga-PSMA-617]: the Ki in data set [6] (ref Benešová et al. [2015]) is 6.4 ± 1 nM. Further, in data set [7] (setting [8]), the “%internalization / total cellular activity ratio” value was “around 45%” and the “Internalization ± SD” value is recorded as 17.7 ± 4.4 %IA/10^6 cells. Also, in data set [7] (LNCaP cells, ref Benešová et al. [2015], listed as [^68Ga]Ga-DOTA-PSMA-617), the “%internalization / total cellular activity ratio” value was 47%.

For `O=C(O)CCCCC1(N(CC(=O)O)CC(=O)O)CN(CC(=O)O)CCN(CC(=O)O)C1.[177Lu+3]` [^177Lu AAZTA^5], the Stability values in data set [1] (DTPA, 1 h) is 99.1 ± 0.2; in data set [1] (DTPA, 2 h), 99.1 ± 0.1; in data set [1] (DTPA, 24 h) it was 80.4 ± 5.4; in data set [1] (DTPA, 7 d) it was 59.0 ± 14.3; in data set [1] (EDTA, 1 h), 98.9 ± 0.2; in data set [1] (EDTA, 2 h), 97.9 ± 0.3. The Stability values in data set [1] (EDTA, 24 h) is recorded as 79.2 ± 2.9; in data set [1] (EDTA, 7 d) it was 48.9 ± 1.5; in data set [2] (1 h), 97.8 ± 0.5; in data set [2] (2 h) it was 98.6 ± 0.4; in data set [2] (24 h) it was 99.1 ± 0.6; in data set [2] (7 d), 96.0 ± 0.8. Further, the Stability values was 99.8 ± 0.1 in data set [5] (1 h), 99.7 ± 0.1 in data set [5] (2 h), 99.9 ± 0.1 in data set [5] (24 h) and 82.5 ± 3.2 in data set [5] (7 d). Also, the “specific internalization or cell surface binding” value in data set [3] and in data set [4] was “no surface activity or internalization” throughout.

(Values after PMC7691401, “^68Ga, ^44Sc and ^177Lu-labeled AAZTA^5-PSMA-617: synthesis, radiolabeling, stability and cell binding compared to DOTA-PSMA-617 analogues” (EJNMMI Radiopharmacy and Chemistry, 2020).)
